Assay results from patent US9457063B2, “Method for treatment of diabetic vascular leakage-induced disease using C-peptide” (KANGWON NATIONAL UNIVERSITY UNIVERSITY-INDUSTRY COOPERATION …, priority 2012, dated 2016).
Where “and” joins values, the source holds several entries; their conditions need not be identical. Equal values may be shown once.

Tests used:
HUVECs [1] = assay: Intracellular Ca2+ levels in HUVECs (Fluo-4 AM); format: cell-based, human; conditions: HUVECs labeled with 1 μM Fluo-4 AM; for effect on VEGF-induced changes in intracellular Ca2+: n=3
Description: To monitor intracellular Ca^2+ levels, cells inoculated into coverslips were incubated with 1 μM Fluo-4 AM for 30 min. The coverslips were mounted on perfusion chambers and scanned every 10 sec by confocal microscopy (FV-300). Serial images from the scan were processed to analyze changes in intracellular Ca^2+ levels at the single-cell level. Data were expressed as the relative fluorescence intensity (RFI).

HUVECs [2] = assay: VEGF-induced intracellular ROS generation in HUVECs; format: cell-based, human; conditions: for VEGF-induced intracellular ROS generation: HUVECs pre-incubated 30 min with 1 mM NAC, 0.5 mM Trolox or 5 μM BAPTA-AM, 10 ng/ml VEGF 10 min
Description: HUVECs were isolated from the human umbilical cord vein according to a well known process, and cells from passages 3 to 6 were used in the following experiments. Cells were inoculated into M199 culture media (supplemented with 20% FBS, 3 ng/ml bFGF, 5 U/ml heparin, 100 U/ml penicillin, and 100 μg/ml streptomycin) in 2% gelatin-coated coverslips, dishes, or plates, and grown at 37° C. in a humidified 5% CO2 incubator.
For experiments, cells were incubated for 6 h in low-serum medium (M199 supplemented as above, but with only 1% FBS), and treated for a suitable time with 10 ng/ml VEGF in the presence or absence of various concentrations of C-peptide.
In detail, HUVECs inoculated into coverslips were treated with VEGF and C-peptide, and incubated with 10 μM 2′,7′-dichlorodihydrofluorescein diacetate (Molecular Probes, Eugene, Oreg.) in phenol red-free media for the last 10 min. The coverslips were mounted on a perfusion chamber, and labeled cells were rapidly scanned by confocal microscopy. The level of intracellular ROS was determined by comparing the fluorescence intensities of treated cells with those of control cells, and expressing this as a fold difference.

HUVECs [3] = assay: VEGF-induced stress fiber formation in HUVECs (rhodamine-phalloidin); format: cell-based, human; conditions: HUVECs 1 hr; 10 ng/ml VEGF with 0.5 nM C-peptide, 1 mM NAC or 0.5 mM Trolox; n=3
Description: HUVECs were grown on gelatin-coated round coverslips in 12-well culture plates, […], alone or in combination, or with 10 ng/ml VEGF in the presence of an ROS scavenger, that is, 1 mM NAC or 0.5 mM Trolox for 1 hr at 37° C. The cells were rapidly rinsed with PBS and fixed with 3.7% formaldehyde in PBS for 30 min. Then, the cells were permeabilized with 0.2% Triton X-100 in PBS for 30 min, and stained with rhodamine-palloidin (Molecular Probes) in PBS for 1 h. The resulting stained cells were mounted on a glass slide using a mounting solution, followed by visualizing actin filaments by confocal microscopy.

[4] = test system: retinas of streptozotocin diabetic mice; assay: Retinal vascular leakage in streptozotocin diabetic mice (FITC-dextran fluorescein angiography); format: in vivo; conditions: for retinal microvascular leakage (extravasation of FITC-dextran) in diabetic mice: intravitreal injection, VEGF antibody 100 μg/ml, N-acetyl-cysteine 81.5 mg/ml, Trolox 125 μg/ml, 2 μl C-peptide, 24 hrs post-injection, n=6, p<0.01
Description: Diabetic mice were generated by a single intraperitoneal injection of streptozotocin (150 mg/kg body weight) freshly prepared in 100 mM citrate buffer (pH 4.5). All mice were supplied with 10% sucrose overnight. Sufficient hyperglycemia was observed 2 days post-injection, as measured by the ACCU-CHEK® Active blood glucose monitor (Roche Diagnostics, Germany). One week after the streptozotocin injection, mice with non-fasting blood glucose levels greater than 16 mM, polyuria, and glucosuria were defined as diabetic and used for the experiments.
The diabetic mice were intravitreally injected with 2 μl of C-peptide (3.7 μg/ml) in PBS into one eye, and an equal volume of PBS was injected into the contralateral eye (n=6 per group). Normal (non-diabetic) mice were also intravitreally injected with 2 μl of PBS into eyes (Normal; n=6 per group). C-peptide concentrations in the vitreous chamber were maintained within the physiological range (0.9 to 2.0 nM) for 12 hrs after intravitreal injection.
After 24 hrs post injection, retina leakage was quantified using fluorescein angiography. In this regard, mice were injected with 1.25 mg of 500-kDa FITC-dextran (Sigma-Aldrich) into the left ventricle and the dye was allowed to circulate for 5 min. Eyes were enucleated and immediately fixed with 4% paraformaldehyde for 45 min. Retinas were dissected, cut in the Maltese cross-configuration, and flat-mounted onto slide glass. Retinas were observed using the confocal microscope. Retina leakage was quantitatively analyzed by determining the intensities of extravasated FITC-dextran from whole retina tissues (n=6 per group) using the FV-300 software.
Diabetic mice were intravitreally injected with a monoclonal VEGF antibody (100 μg/ml), N-acetyl-cysteine (81.5 mg/ml), or Trolox (125 μg/ml) into one eye, and an equal volume of PBS was injected into the contralateral eye (n=6 per group). Twenty four hrs post-injection, retinal vascular leakage was quantified using fluorescein angiography. For the experiment, mice were injected with 1.25 mg of 500-kDa FITC-dextran (Sigma) into the left ventricle and the dye was allowed to circulate for 5 min. The eyes were enucleated and immediately fixed with 4% paraformaldehyde for 45 min. Retinas were dissected, cut in the Maltese cross-configuration, and flat-mounted onto slide glass before observation using confocal microscopy. Retinal vascular leakage was quantitatively analyzed by determining the intensities of extravasated FITC-dextran from whole retina tissues (n=6 per group) using confocal microscopy (FV-300, Olympus, Tokyo, Japan), and applying the intensity data to the FV-300 software.

HUVECs [5] = assay: VEGF-induced disassembly of VE-cadherin adherens junctions in HUVECs; format: cell-based, human; conditions: for VEGF-induced disassembly of VE-cadherin: HUVECs 90 min, 10 ng/ml VEGF with 0.5 nM C-peptide, 1 mM NAC or 0.5 mM Trolox, n=3
Description: Confluent cell layers (HUVECs) in 6-well plates were incubated with C-peptide or an ROS scavenger for 30 min, and then treated with VEGF for 90 min at 37° C. The treated cells were rinsed with PBS, and fixed with 3.7% formaldehyde in PBS for 30 min. The cells were permeabilized with 0.2% Triton X-100 in PBS for 30 min, and stained overnight at 4° C. with a monoclonal VE-cadherin antibody (Santa Cruz Biotechnology, Santa Cruz, Calif.) in PBS. Thereafter, the cells were probed with goat anti-mouse FITC (fluorescein isothiocyanate; Sigma, St. Louis, Mo.), followed by visualizing VE-cadherin by confocal microscopy.

[6] = Serum C-peptide levels during subcutaneous mini-osmotic pump delivery; format: in vivo; conditions: diabetic mice, 35 pmol/min/kg, n=7
Description: After implantation of a mini-osmotic pump for delivering C-peptide, blood c-peptide levels were measured. One group of diabetic mice (n=7) was subcutaneously implanted with ALZET® mini-osmotic pump 2004 (DURECT, Cupertino, Calif.) containing C-peptide in PBS with a delivery rate of 35 pmol/min/kg. The other diabetic (n=7) and control groups (n=7) underwent sham operations. During the continuous subcutaneous C-peptide perfusion, serum C-peptide levels were measured using a C-peptide Enzyme Immunoassay Kit (RayBiotech, Norcross, Ga.).

[7] = test system: microvessels of the diabetic mouse retina; assay: Disassembly of adherens junctions (VE-cadherin) in retina of diabetic mice; format: in vivo; conditions: intravitreal 2 μl C-peptide, n=3
Description: Diabetic mice were intravitreally injected with 2 μl C-peptide into one eye (Diabetic+C-Pep) and an equal volume of PBS into the contralateral eye (Diabetic, n=3). Normal (non-diabetic) mice also were intravitreally injected with 2 μl PBS into eyes (Normal, n=3).
VE-cadherin was stained in the retina and visualized using confocal microscopy as described below.
Microvessels were stained for VE-cadherin in retinal whole mounts. In detail, isolated retinas were fixed in 100% ethanol for 30 min, delipidated in 100% ice-cold acetone for 10 min, and permeabilized with 0.3% Triton X-100 for 1 hr. The retinas were incubated with an anti-VE-cadherin antibody (Enzo Life Sciences, Farmingdale, N.Y., USA) at 4° C. for 24 hrs, and probed with goat anti-mouse FITC (Sigma) at 4° C. for 24 hrs, followed by visualizing VE-cadherin by confocal microscopy (FV-300, Olympus).

[8] = C-peptide levels in the vitreous fluid after intravitreal injection; format: in vivo, mice; conditions: mouse, 7.5 ng, after intravitreal injection of 2 μl C-peptide (3.7 μg/ml), maintained for 12 hrs, physiological range, read-out: C-peptide concentrations in the vitreous chamber
Description: After intravitreal injection, C-peptide levels in the vitreous fluid were monitored with time. In this regard, C-peptide was intravitreally injected at a dose of 7.5 ng, after which C-peptide in the vitreous chamber was quantitated using a human C-peptide ELISA kit (Millipore Co. Billerica, Mass.) (n=4).

[9] = test system: skin of streptozotocin diabetic mice; assay: Miles vascular permeability assay in skin of streptozotocin diabetic mice; format: in vivo
Description: A Miles vascular permeability assay was performed in diabetic mice as follows. After 2 to 3 days post-shaving, mice were anesthetized and intravenously injected with 150 μl of a 1% Evans blue solution. After 15 min, 15 μl of a VEGF (10 ng) solution containing 0, 7.5, or 15 ng of C-peptide was injected intradermally into the shaved skin of the mice (n=12 per group). PBS was injected for the control (n=12). An area of skin that included the blue spot resulting from leakage of the dye was dissected, and the Evans blue dye was eluted from the dissected skin by incubation with formamide at 56° C. for 2 days. The amount of dye was quantitated by spectrophotometry at 620 nm.

FIG. 6A = assay: FIG. 6A
From the text: Table printed on a drawing sheet, FIG. 6A
Footnotes: Data are means ± S.D. / ***p<0.001 vs. control mice.
FIG. 6D is a graph in which serum C-peptide levels are plotted against time after intravitreal injection; and
First reader's note: Each column is a mouse group; the cells give mean ± S.D. of the serum C-peptide level.

Row | Structure (SMILES) | effect on VEGF-induced changes in intracellular Ca2+ (HUVECs [1]) | VEGF-induced intracellular ROS generation (HUVECs [2]) | VEGF-induced stress fiber formation (HUVECs [3]) | retinal microvascular leakage (extravasation of FITC-dextran) in diabetic mice [4] | VEGF-induced disassembly of VE-cadherin (HUVECs [5]) | serum C-peptide level [6] | diabetes-induced disassembly of adherens junctions in retinal microvessels [7] | level at time molar [8] [nM] | effect of substance alone on intracellular Ca2+ (HUVECs [1]; no VEGF) | extravasation of FITC-dextran (vascular leakage) in the retinas of diabetic mice ([4]; intravitreal 2 μl C-peptide (3.7 μg/ml), 24 hrs post injection, vs PBS contralateral eye, n=6, p<0.05) | concentration at which complete prevention of VEGF-induced ROS generation was observed (HUVECs [2]; HUVECs pre-treated 30 min, 10 ng/ml VEGF) [nM] | VEGF-induced generation of intracellular ROS (HUVECs [2]; HUVECs pre-treated with various concentrations of C-peptide 30 min, 10 ng/ml VEGF, dose-dependent) | VEGF-induced vascular permeability (Evans blue leakage) in skin ([9]; intradermal VEGF (10 ng) with 7.5 or 15 ng C-peptide, dose-dependent, n=12, p<0.01) | vascular permeability with C-peptide alone ([9]; intradermal, no VEGF) | Serum C-peptide (nM) (4 weeks after C-peptide delivery) (FIG. 6A) | Serum C-peptide (nM) (at 1 week of diabetes induction) (FIG. 6A) | VEGF-induced decrease in the fluorescence intensity of the adherens junctions (HUVECs [5]; HUVECs, VE-cadherin histograms (RFI), FIG. 4B)
1 | CC(=O)OCOC(=O)CN(CC(=O)OCOC(C)=O)c1ccccc1OCCOc1ccccc1N(CC(=O)OCOC(C)=O)CC(=O)OCOC(C)=O [BAPTA-AM, 1,2-bis(2-aminophenoxy)ethane-N,N,N-′,N′-tetraacetic acid tetrakis(acetoxymethyl ester), reference compound] | blocked | blocked |  |  |  |  |  |  |  |  |  |  |  |  |  |  | 
2 | CC(=O)N[C@@H](CS)C(=O)O [NAC, N-acetyl-L-cysteine, reference compound] |  | abolished | inhibited | prevented | prevented |  |  |  |  |  |  |  |  |  |  |  | 
3 | CC(C)C[C@H](NC(=O)[C@H](C)NC(=O)[C@H](CC(C)C)NC(=O)[C@@H]1CCCN1C(=O)[C@H](CCC(N)=O)NC(=O)[C@H](CC(C)C)NC(=O)[C@H](CO)NC(=O)CNC(=O)[C@H](C)NC(=O)CNC(=O)[C@@H]1CCCN1C(=O)CNC(=O)CNC(=O)CNC(=O)[C@H](CC(C)C)NC(=O)[C@H](CCC(=O)O)NC(=O)[C@@H](NC(=O)[C@H](CCC(N)=O)NC(=O)CNC(=O)[C@@H](NC(=O)[C@H](CCC(N)=O)NC(=O)[C@H](CC(C)C)NC(=O)[C@H](CC(=O)O)NC(=O)[C@H](CCC(=O)O)NC(=O)[C@H](C)NC(=O)[C@@H](N)CCC(=O)O)C(C)C)C(C)C)C(=O)N[C@@H](CCC(=O)O)C(=O)NCC(=O)N[C@@H](CO)C(=O)N[C@@H](CC(C)C)C(=O)N[C@@H](CCC(N)=O)C(=O)O [C-peptide] | had no effect |  | sufficiently suppressed | blocked | inhibited | elevated to a normal value | inhibited | 0.9 to 2 | did not increase | blocked | 0.5 | inhibited | suppressed | did not cause a significant change | 1.50 ± 0.89 nM and 2.40 ± 0.93 nM | 1.44 ± 0.53 | recovered
4 | Cc1c(C)c2c(c(C)c1O)CCC(C)(C(=O)O)O2 (centres unmarked) [Trolox, reference compound] |  | abolished | inhibited | prevented | prevented |  |  |  |  |  |  |  |  |  |  |  | 
